Tested on: Transport facilitation protein genes
Test: DNA chip mRNA expression in yeast, transport facilitation protein genes (Table 5)
Assay type: cell-based, Saccharomyces cerevisiae S288C
Experimental: Yeast (Saccharomyces cerevisiae S288C (α SUC2mal mel gap2 CUP1)) were incubated at 25° C. on YPD medium (yeast extract 1%, polypepton 2%, glucose 2%). One of toxic chemical substances was added to the cells at logarithmic growth phase, and the cells were further incubated for two hours. Cells were cultured without any chemical substance in the same condition, and were used as control. Concentrations of the chemical substances were defined to inhibit the growth of the yeast but not lead to death.
After completion of the incubation, the culture was centrifuged to collect the cells. To the cells, sodium acetate buffer (50 mM sodium acetate, 10 mM EDTA, 1% SDS) was added, and the mixture was shaken at 65° C. for five minutes, followed by returning to room temperature, and obtaining the supernatant, of which the procedures were repeated two times. To the supernatant, ½ amount of a solution of phenol/chloroform was added, and the mixture was centrifuged to give a supernatant, which was added with an equal amount of chloroform, and the mixture was centrifuged to give a supernatant. To the supernatant, an equal amount of isopropanol containing 0.3 M sodium acetate was added, and the mixture was allowed to stand at room temperature for 30 minutes, after which the mixture was centrifuged to give a sediment of the whole RNAs. Seventy % ethanol was added to the sediment, and the mixture was again centrifuged to give a sediment, which was then dried and dissolved in water. mRNA was isolated from the whole RNAs as followings. In view of the fact that a poly A chain is attached to the 3′ terminus of mRNA, a polynucleotide having a poly T structure which was immobilized on the surface of latex beads was used to trap the mRNA, and then the mRNA was washed and eluted with spine column (Oligotex-dT30<Super>mRNA Purification Kit, Takara). Reverse transcription of the mRNA was conducted with a reverse transcriptase (Super Script II Reverse Transcriptase; catalogue No. 18064-014, GibcoBRL) using fluorescence-labeled nucleotides to give cDNAs that were introduced with Cy3-dUTP or Cy5-dUTP during the reverse transcription.
The labeled cDNAs were dissolved in TE buffer (10mM Tris-HCl/1 mM EDTA, pH8.0), and the solution was dropped on the DNA chip containing the whole genes of yeast (DNA Chip Research Inc. Japan) so that the cDNAs were hybridized on the DNA chip at 65° C. for over 12 hours. The fluoresces intensity of the DNA chip was read with a scanner, and the ratio relative to the fluorescence intensity resulting from the absence of chemical substance was estimated as the following, which is shown in Tables 1 to 9: […]

S=C([S-])NCCNC(=S)[S-].[Zn+2] [(11), zinc N,N′-ethylenebis(dithiocarbamate)]
The level of expressed mRNA in the presence of chemical substance/The level of expressed mRNA in the absence of chemical substance (yeast gene YHL035C): 0.9
The level of expressed mRNA in the presence of chemical substance/The level of expressed mRNA in the absence of chemical substance (yeast gene YHL036W): 2.3
The level of expressed mRNA in the presence of chemical substance/The level of expressed mRNA in the absence of chemical substance (yeast gene YHL040C): 1.7
The level of expressed mRNA in the presence of chemical substance/The level of expressed mRNA in the absence of chemical substance (yeast gene YHL047C): 1.0
The level of expressed mRNA in the presence of chemical substance/The level of expressed mRNA in the absence of chemical substance (yeast gene YHR026W): 1.4
The level of expressed mRNA in the presence of chemical substance/The level of expressed mRNA in the absence of chemical substance (yeast gene YHR048W): 2.0
The level of expressed mRNA in the presence of chemical substance/The level of expressed mRNA in the absence of chemical substance (yeast gene YHR092C): 1.5
The level of expressed mRNA in the presence of chemical substance/The level of expressed mRNA in the absence of chemical substance (yeast gene YHR094C): 0.6
The level of expressed mRNA in the presence of chemical substance/The level of expressed mRNA in the absence of chemical substance (yeast gene YHR175W): 1.1
The level of expressed mRNA in the presence of chemical substance/The level of expressed mRNA in the absence of chemical substance (yeast gene YIL006W): 1.0
The level of expressed mRNA in the presence of chemical substance/The level of expressed mRNA in the absence of chemical substance (yeast gene YIL022W): 1.0
The level of expressed mRNA in the presence of chemical substance/The level of expressed mRNA in the absence of chemical substance (yeast gene YIL056W): 0.7
The level of expressed mRNA in the presence of chemical substance/The level of expressed mRNA in the absence of chemical substance (yeast gene YIL088C): 1.8
The level of expressed mRNA in the presence of chemical substance/The level of expressed mRNA in the absence of chemical substance (yeast gene YJL034W): 1.3
The level of expressed mRNA in the presence of chemical substance/The level of expressed mRNA in the absence of chemical substance (yeast gene YJL212C): 0.9
The level of expressed mRNA in the presence of chemical substance/The level of expressed mRNA in the absence of chemical substance (yeast gene YJL219W): 2.3
The level of expressed mRNA in the presence of chemical substance/The level of expressed mRNA in the absence of chemical substance (yeast gene YJR077C): 1.6
The level of expressed mRNA in the presence of chemical substance/The level of expressed mRNA in the absence of chemical substance (yeast gene YJR106W): 1.6
The level of expressed mRNA in the presence of chemical substance/The level of expressed mRNA in the absence of chemical substance (yeast gene YJR121W): 0.9
The level of expressed mRNA in the presence of chemical substance/The level of expressed mRNA in the absence of chemical substance (yeast gene YKL016C): 1.3
The level of expressed mRNA in the presence of chemical substance/The level of expressed mRNA in the absence of chemical substance (yeast gene YKL146W): 0.9
The level of expressed mRNA in the presence of chemical substance/The level of expressed mRNA in the absence of chemical substance (yeast gene YKR039W): 1.9
The level of expressed mRNA in the presence of chemical substance/The level of expressed mRNA in the absence of chemical substance (yeast gene YKR067W): 1.3
The level of expressed mRNA in the presence of chemical substance/The level of expressed mRNA in the absence of chemical substance (yeast gene YLL028W): 0.7
The level of expressed mRNA in the presence of chemical substance/The level of expressed mRNA in the absence of chemical substance (yeast gene YLL055W): 3.6
The level of expressed mRNA in the presence of chemical substance/The level of expressed mRNA in the absence of chemical substance (yeast gene YLR081W): 2.6
The level of expressed mRNA in the presence of chemical substance/The level of expressed mRNA in the absence of chemical substance (yeast gene YLR295C): 1.3
The level of expressed mRNA in the presence of chemical substance/The level of expressed mRNA in the absence of chemical substance (yeast gene YLR348C): 1.3
The level of expressed mRNA in the presence of chemical substance/The level of expressed mRNA in the absence of chemical substance (yeast gene YLR378C): 1.0
The level of expressed mRNA in the presence of chemical substance/The level of expressed mRNA in the absence of chemical substance (yeast gene YMR011W): 1.5
The level of expressed mRNA in the presence of chemical substance/The level of expressed mRNA in the absence of chemical substance (yeast gene YMR162C): 1.7
The level of expressed mRNA in the presence of chemical substance/The level of expressed mRNA in the absence of chemical substance (yeast gene YMR203W): 2.3
The level of expressed mRNA in the presence of chemical substance/The level of expressed mRNA in the absence of chemical substance (yeast gene YNL055C): 1.9
The level of expressed mRNA in the presence of chemical substance/The level of expressed mRNA in the absence of chemical substance (yeast gene YNL259C): 1.6
The level of expressed mRNA in the presence of chemical substance/The level of expressed mRNA in the absence of chemical substance (yeast gene YNR072W): 1.4
The level of expressed mRNA in the presence of chemical substance/The level of expressed mRNA in the absence of chemical substance (yeast gene YOL119C): 3.4
The level of expressed mRNA in the presence of chemical substance/The level of expressed mRNA in the absence of chemical substance (yeast gene YOL156W): 1.1
The level of expressed mRNA in the presence of chemical substance/The level of expressed mRNA in the absence of chemical substance (yeast gene YOL158C): 0.7
The level of expressed mRNA in the presence of chemical substance/The level of expressed mRNA in the absence of chemical substance (yeast gene YOL163W): 1.6
The level of expressed mRNA in the presence of chemical substance/The level of expressed mRNA in the absence of chemical substance (yeast gene YOR035C): 1.0
The level of expressed mRNA in the presence of chemical substance/The level of expressed mRNA in the absence of chemical substance (yeast gene YOR130C): 0.6
The level of expressed mRNA in the presence of chemical substance/The level of expressed mRNA in the absence of chemical substance (yeast gene YOR153W): 1.0
The level of expressed mRNA in the presence of chemical substance/The level of expressed mRNA in the absence of chemical substance (yeast gene YOR270C): 1.5
The level of expressed mRNA in the presence of chemical substance/The level of expressed mRNA in the absence of chemical substance (yeast gene YOR273C): 1.5
The level of expressed mRNA in the presence of chemical substance/The level of expressed mRNA in the absence of chemical substance (yeast gene YOR316C): 2.4
The level of expressed mRNA in the presence of chemical substance/The level of expressed mRNA in the absence of chemical substance (yeast gene YOR328W): 1.1
The level of expressed mRNA in the presence of chemical substance/The level of expressed mRNA in the absence of chemical substance (yeast gene YOR332W): 1.5
The level of expressed mRNA in the presence of chemical substance/The level of expressed mRNA in the absence of chemical substance (yeast gene YOR348C): 1.1
The level of expressed mRNA in the presence of chemical substance/The level of expressed mRNA in the absence of chemical substance (yeast gene YPL036W): 0.8
The level of expressed mRNA in the presence of chemical substance/The level of expressed mRNA in the absence of chemical substance (yeast gene YPL134C): 1.7
The level of expressed mRNA in the presence of chemical substance/The level of expressed mRNA in the absence of chemical substance (yeast gene YPL265W): 1.8
The level of expressed mRNA in the presence of chemical substance/The level of expressed mRNA in the absence of chemical substance (yeast gene YPL271W): 1.7
The level of expressed mRNA in the presence of chemical substance/The level of expressed mRNA in the absence of chemical substance (yeast gene YPR124W): 2.0
The level of expressed mRNA in the presence of chemical substance/The level of expressed mRNA in the absence of chemical substance (yeast gene YPR192W): 0.7
The level of expressed mRNA in the presence of chemical substance/The level of expressed mRNA in the absence of chemical substance (yeast gene YPR194C): 0.7
